Measured values: patent publication US10119122B2, “Differentiation and expansion of endothelial cells from pluripotent stem cells and the in vitro formation of vasculature like structures” (Academisch Ziekenhuis Leiden, priority 2013, dated 2018)

Columns and labels:
[1] = tested on: iPSC-derived pericytes/mesenchymal cells; assay: Contractile smooth muscle marker expression in iPSC-derived pericytes/mesenchymal cells; assay type: cell-based, human; settings: ALK5 inhibitor
Description: Our differentiation system facilitates simultaneous derivation and expansion of pericytes and ECs from iPSC lines. […] Thus, a renewable source of pericytes/SMCs was created for co-culture with ECs that would in principle be able to simulate endothelial-pericyte interaction in humans.
iPSC-derived pericytes/mesenchymal cells were derived from the CD31− fraction emerging during the endothelial differentiation protocol. CD31− cells were plated on gelatin coated plates in EGM-2 media (Lonza). After 4 days medium was replaced by DMEM+10% FBS supplemented with TGFβ3 (2 ng/ml, Peprotech) and PDGF-BB (4 ng/ml, Peprotech). iPSC-derived pericytes were routinely maintained on gelatin-coated plates in DMEM+10% FBS. Cells were characterized for the expression of pericyte and mesenchymal cell-specific markers by flow cytometry and immunofluorescent staining as describe above.
ECs and pericytes were cultured as described above on gelatin coated coverslips. Cells were fixed with 4% PFA, permeabilized and stained with the following antibodies as described (Orlova et al., Manuscript in preparation): anti-Ve-Cadherin (1:200, CellSignaling), anti-vWF (1:200, Dako), anti-CD31 (1:200, Dako), anti-SM22a (1:200, Abcam), anti-SMA (1:400, Sigma), anti-CNN1 (1:200, Sigma).

[2] = tested on: HHT1-iPSC-derived ECs co-cultured with control iPSC-derived pericytes; assay: 2D endothelial-pericyte co-culture sprouting assay, HHT1 patient ECs; assay type: cell-based, human; settings: SB431542 added with TGFβ3 (1 ng/ml) or BMP9 (1 ng/ml); day 7; control and HHT1-iPSC ECs (FIG. 17)
Description: The endothelial capillary-like network formation assay was carried out as previously described but with major modifications (Evensen et al., 2013). These included using both ECs and pericytes derived from human iPSC lines. This is described in more detail elsewhere (Orlova et al., manuscript in preparation). ECs were labelled with the general cytoplasmic labeling dye (PKH-26). For the sprouting assay, 12,000 ECs derived from both control and diseased lines were plated with 50,000 control iPSC-derived pericytes/well on 0.1% gelatin coated 96-well plates in EGM-2 (Lonza, CC-3162). Next day and on the day 4 of the assay, medium was replaced with new EGM-2 media containing tested compounds as indicated in the figure legends. Endothelial-pericyte co-culture was terminated on day 7 of the assay each well immunofluorescently stained for quantification, as follows: co-cultures were fixed with the 4% paraformaldehyde (PFA), permeabilized with the 0.1% TX-100 and blocked with the normal goat serum (Dako). Endothelial sprouts were visualized with the mouse anti-CD31 (Dako, 1:200). In some experiment with the mouse blocking antibodies, rabbit anti-CD31 (Scbt, 1:200) was used instead. Pericytes were visualized with antibodies against SM22 (Sigma, 1:200). The endothelial network was imaged with the BD Pathway 855 system using the 4× or 10× objective and 2×2 (or 3×3) Montage mode. Total area covered by the endothelial sprouts was quantified with the protocol developed within cell image analysis software CellProfiller (Broad Institute). High magnification images were acquired with the SP5 confocal microscope, using 10× and 40× objectives.
It was hypothesized that this system might be useful for distinguishing […] versus paracrine effects of endoglin deficiency in HHT1-iPSCs-derived ECs. Therefore, ECs from HHT-iPSC lines in the co-culture assay combined with the pericytes derived from the control iPSCs were examined. Little difference was observed between ECs from HHT1 and control iPSCs in co-culture. ECs from the patient harboring the 1083delAA and IVS 5+2 (T>C) mutation similar endothelial sprout formation as the controls (FIGS. 11A and 11B).
Endothelial cell-pericyte co-culture was performed as described previously (Evensen et al., 2013) but using conditions optimized for iPSC-derived ECs and pericytes as described (Orlova et al., manuscript in preparation). In brief, 12,000 and 50,000 iPSC-derived ECs and pericytes were plated, respectively, in each well of a 96-well plate. Next day the co-cultures were refreshed with the specific treatment conditions indicated. The co-culture was fixed on day 7, and EC sprouts stained with anti-CD31 antibody (1:200, Dako) (as described in Orlova et al., manuscript in preparation). Pericytes were visualized with the anti-SM22 antibody (1:200, Abcam). The BD Pathway 855 system was used for automatic image acquisition, with the 4× objective and 2×2 (or in some cases 3×3) montage mode. CellProfiller (Broad Institute) custom pipeline was used for the image quantification.

SMILES: NC(=O)c1ccc(-c2nc(-c3ccc4c(c3)OCO4)c(-c3ccccn3)[nH]2)cc1 [SB431542, reference compound]
- SM22 expression in pericytes [1]: no effect on SM22 expression in pericytes
- rescue of ligand-induced inhibition of sprout formation [2]: rescued the inhibitory effect of both TGFβ3 and BMP-9
